For orientation: EC50 means the concentration at which the effect is half-maximal. A word on the Emax: it is the maximal effect, on the per cent scale that the assay sets.

These results are taken from US20220363719A1, “Reverse Amide-Linked Melanocortin Receptor-Specific Cyclic Peptides” (Palatin Technologies, Inc., priority 2020, published 2022).

Common to all, as to format: cell-based
Test [1] has as its target T1, hMC5r (Homo sapiens, UniProt P33032).
T1 construct: Eurofins CEREP SA
Put plainly: cAMP agonist activity assay performed at CEREP (HTRF), MC5. To be noted: determined by CEREP, CHO-K1 cells; for EC50: cAMP HTRF; for Emax: control Alpha-MSH, read-out: Emax percent hMC5r* (percent of the maximal response obtained with the positive control). The method, then:
Evaluation of the agonist activity of compounds at the melanocortin receptors was determined by measuring their effects on cAMP production using the HTRF detection method at CEREP (Eurofins CEREP SA, Celle-Lévescault, France). The cells were suspended in HBSS buffer (Invitrogen) complemented with 20 mM HEPES (pH 7.4) and 500 μM IBMX, then distributed in microplates and incubated in the presence of HBSS (basal control), the test compound or the reference agonist. Incubation time, temperature, cell number, reference agonist and cell line information are included in the Table 1 below. For stimulated control measurement, separate assay wells contain reference compound. Following incubation, the cells are lysed and the fluorescence acceptor (D2-labeled cAMP) and fluorescence donor (anti-cAMP antibody labeled with europium cryptate) were added. After 60 minutes at room temperature, the fluorescence transfer was measured at excitation wavelength 337 nm and emission wavelengths 620 and 665 nm using a microplate reader (Envision, Perkin Elmer). The cAMP concentration was determined by dividing the signal measured at 665 nm by that measured at 620 nm (ratio).
The results are expressed as a percent of the control response to 1 μM of the reference. The standard reference agonist is tested in each experiment at several concentrations to generate a concentration-response curve from which its EC50 value is calculated.
For orientation: Time-resolved FRET reads energy transfer from a long-lived donor to a nearby acceptor.

Test [2] addresses hMC4r (Homo sapiens, UniProt P32245). Description: Alternative assay for agonist activity (intracellular cAMP), HEK-293 cells, recombinant MC4r. To be noted: for Emax: HEK293, not CEREP, reference NDP-α-MSH, read-out: Emax percent hMC4r (percent of the maximal response obtained with the positive control); for EC50: not CEREP, cAMP HTRF. Details: expressed in transfected cells; host or cells: HEK-293. The method, then:
(§1) Accumulation of intracellular cAMP was examined as a measure of the ability of the peptides to elicit a functional response in either HEK-293 cells that express recombinant MC3r or MC4r or B16-F10 (mouse) and HBL (human) cell lines that express native MC1 r. Confluent cells were detached from culture plates by incubation in enzyme-free cell dissociation buffer. Dispersed cells were suspended in Hank's Balanced Salt Solution containing 10 mM HEPES (pH 7.5), 1 mM MgCl2, 1 mM glutamine, 0.5% albumin and 0.3 mM 3-isobutyl-1-methyl-xanthine (IBMX), a phosphodiesterase inhibitor. The cells were dispensed into 96-well plates at a density of 0.5×10^5 cells per well and pre-incubated for 10 minutes. Cells were exposed for 15 minutes at 37° C. to peptides dissolved in DMSO (final DMSO concentration of 1%) at a concentration range of 0.05-5000 nM in a total assay volume of 200 μL. NDP-α-MSH was used as the reference agonist. cAMP levels were determined by an HTRF® cAMP cell-based assay system from Cisbio Bioassays utilizing cryptate-labeled anti-cAMP and D2-labeled cAMP, with plates read on a Perkin-Elmer Victor plate reader at […]. Data analysis was performed by nonlinear regression analysis with Graph-Pad Prism® software. The maximum efficacies of the test peptides were compared to that achieved by the reference melanocortin agonist NDP-α-MSH.

Test [3] addresses hMC3r (Homo sapiens, UniProt P41968). Description: Alternative assay for agonist activity (intracellular cAMP), HEK-293 cells, recombinant MC3r. On the set-up: expressed in transfected cells; host or cells: HEK-293. To be noted: for Emax: HEK293, not CEREP, reference NDP-α-MSH, read-out: Emax percent hMC3r (percent of the maximal response obtained with the positive control); for EC50: not CEREP, cAMP HTRF. Here is the method:
as §1

The target in test [4] is mMC1r (Mus musculus, UniProt Q01727). Put plainly: Alternative assay for agonist activity (intracellular cAMP), B16-F10 cells, native MC1r. On the set-up: B16-F10 (mouse) and HBL (human) cell lines that express native MC1 r; endogenous in cells; host or cells: B16-F10 mouse melanoma cells. The conditions noted are these: not CEREP; for EC50: cAMP HTRF; for Emax: reference NDP-α-MSH, read-out: Emax percent mMC1r (percent of the maximal response obtained with the positive control). The method, then:
as §1

Where a SMILES comes first, the peptide text is derived from it. Bridges are numbered along the chain shown (N, C = ends). [ ]: non-standard residue; d: D form. The star is where a group is joined. ξ: configuration not given here. d1Nal = N[C@H](Cc1cccc2ccccc12)C(=O)O; Nle = CCCC[C@H](N)C(=O)O; Orn = NCCC[C@H](N)C(=O)O; Dab = NCC[C@H](N)C(=O)O; ξHyp = O=C(O)C1CC(O)CN1; Dap = NC[C@H](N)C(=O)O; Ahx = NCCCCCC(=O)O; Bn = c1ccc(C*)cc1; GABA = NCCCC(=O)O; βAla = NCCC(=O)O Where only a bound is given, the exact number is not on record here.

T1 sequence (P33032 whole entry): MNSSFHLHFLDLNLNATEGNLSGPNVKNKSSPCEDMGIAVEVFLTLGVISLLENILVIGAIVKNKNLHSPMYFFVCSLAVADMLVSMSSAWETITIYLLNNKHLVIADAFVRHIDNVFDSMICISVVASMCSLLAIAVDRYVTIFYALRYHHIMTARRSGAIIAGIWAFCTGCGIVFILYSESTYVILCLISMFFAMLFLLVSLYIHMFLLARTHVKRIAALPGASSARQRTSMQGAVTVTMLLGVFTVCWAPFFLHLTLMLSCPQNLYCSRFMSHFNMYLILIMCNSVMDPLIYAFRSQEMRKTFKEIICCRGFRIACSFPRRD
hMC3r, sequence (P41968 whole entry): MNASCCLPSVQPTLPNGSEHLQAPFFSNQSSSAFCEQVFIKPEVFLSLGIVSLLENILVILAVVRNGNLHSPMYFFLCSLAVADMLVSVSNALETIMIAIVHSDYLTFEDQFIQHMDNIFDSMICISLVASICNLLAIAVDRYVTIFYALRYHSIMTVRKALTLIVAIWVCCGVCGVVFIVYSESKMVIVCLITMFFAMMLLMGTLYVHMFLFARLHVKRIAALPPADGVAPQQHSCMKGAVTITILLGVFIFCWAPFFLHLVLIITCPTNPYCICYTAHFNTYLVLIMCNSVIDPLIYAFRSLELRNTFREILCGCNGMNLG
hMC4r, sequence (P32245 whole entry): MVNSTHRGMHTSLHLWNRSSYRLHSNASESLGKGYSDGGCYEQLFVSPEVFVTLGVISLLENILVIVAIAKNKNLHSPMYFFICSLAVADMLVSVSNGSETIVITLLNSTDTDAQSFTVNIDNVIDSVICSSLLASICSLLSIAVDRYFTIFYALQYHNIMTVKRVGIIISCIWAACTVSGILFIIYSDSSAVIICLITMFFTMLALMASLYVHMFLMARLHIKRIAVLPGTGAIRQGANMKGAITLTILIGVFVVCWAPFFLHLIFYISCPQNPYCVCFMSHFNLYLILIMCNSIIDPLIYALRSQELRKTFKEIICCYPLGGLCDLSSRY
mMC1r, sequence (Q01727 whole entry): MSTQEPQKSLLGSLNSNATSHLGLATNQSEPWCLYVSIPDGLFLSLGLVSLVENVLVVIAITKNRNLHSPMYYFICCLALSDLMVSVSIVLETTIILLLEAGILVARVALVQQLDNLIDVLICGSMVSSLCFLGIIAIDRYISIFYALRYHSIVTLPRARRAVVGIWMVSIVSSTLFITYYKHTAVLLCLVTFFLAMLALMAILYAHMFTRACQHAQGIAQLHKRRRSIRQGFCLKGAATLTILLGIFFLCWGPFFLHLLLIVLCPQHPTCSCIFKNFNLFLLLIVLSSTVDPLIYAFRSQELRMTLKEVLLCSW

In the case of `CCCC[C@H](NC(C)=O)C(=O)N[C@H]1CCCCNC(=O)CCNC(=O)[C@H](Cc2c[nH]c3ccccc23)NC(=O)[C@H](CCCNC(=N)N)NC(=O)[C@@H](Cc2cccc3ccccc23)NC(=O)C2CC(OCc3ccccc3)CN2C1=O` (stereo partly shown) [Peptide 2] (Ac-[Nle]K[ξHyp](Bn)[d1Nal]RW[βAla]; lactam 2-C), the 50% effective concentration (EC50) in test [1] was 0.23 nM; in test [2], 5 nM; in test [3] it was over 10000 nM; in test [4], 2 nM. The Emax in test [1] was 96%; in test [2], 33%; in test [3], 14%; in test [4], 61%.

As for `CCCC[C@H](NC(C)=O)C(=O)N[C@H]1CCCNC(=O)CCNC(=O)[C@H](Cc2c[nH]c3ccccc23)NC(=O)[C@H](CCCNC(=N)N)NC(=O)[C@@H](Cc2cccc3ccccc23)NC(=O)C2CC(OCc3ccccc3)CN2C1=O` (stereo partly shown) [Peptide 3] (Ac-[Nle][Orn][ξHyp](Bn)[d1Nal]RW[βAla]; lactam 2-C), the EC50 is 0.2 nM in test [1], 5 nM in test [2], over 10000 nM in test [3] and 2 nM in test [4]. The Emax stood at 93% in test [1], 31% in test [2], 12% in test [3] and 67% in test [4].

In the case of `CCCC[C@H](NC(C)=O)C(=O)N[C@H]1CCCNC(=O)CNC(=O)[C@H](Cc2c[nH]c3ccccc23)NC(=O)[C@H](CCCNC(=N)N)NC(=O)[C@@H](Cc2cccc3ccccc23)NC(=O)C2CC(OCc3ccccc3)CN2C1=O` (stereo partly shown) [Peptide 4] (Ac-[Nle][Orn][ξHyp](Bn)[d1Nal]RWG; lactam 2-C), the concentration giving a half-maximal response (EC50) in test [1] is 10 nM; in test [2], 15 nM; in test [3] it was over 10000 nM; in test [4] it was 26 nM. For the same molecule, the maximal effect (Emax) in test [1] was 118%; in test [2], 38%; in test [3], 10%; in test [4] it was 67%.

In the case of `CCCC[C@H](NC(C)=O)C(=O)N[C@H]1CCNC(=O)CCNC(=O)[C@H](Cc2c[nH]c3ccccc23)NC(=O)[C@H](CCCNC(=N)N)NC(=O)[C@@H](Cc2cccc3ccccc23)NC(=O)C2CC(OCc3ccccc3)CN2C1=O` (stereo partly shown) [Peptide 5] (Ac-[Nle][Dab][ξHyp](Bn)[d1Nal]RW[βAla]; lactam 2-C), the EC50 in test [1] was 0.74 nM; in test [2], 11 nM; in test [3], over 10000 nM; in test [4], 5 nM. Further, the Emax was 77% in test [1], 32% in test [2], 5% in test [3] and 75% in test [4].

On to `CCCC[C@H](NC(C)=O)C(=O)N[C@H]1CNC(=O)CNC(=O)[C@H](Cc2c[nH]c3ccccc23)NC(=O)[C@H](CCCNC(=N)N)NC(=O)[C@@H](Cc2cccc3ccccc23)NC(=O)C2CC(OCc3ccccc3)CN2C1=O` (stereo partly shown) [Peptide 6] (Ac-[Nle][Dap][ξHyp](Bn)[d1Nal]RWG; lactam 2-C), for which the Emax was found to be 36% in test [2], 6% in test [3] and 34% in test [4]. The EC50 in test [2] was 87 nM; in test [3], over 10000 nM; in test [4], 521 nM.

As to `CC(=O)N[C@@H](CCCNC(=N)N)C(=O)N[C@H]1CCCNC(=O)CCCNC(=O)[C@H](Cc2c[nH]c3ccccc23)NC(=O)[C@H](CCCNC(=N)N)NC(=O)[C@@H](Cc2ccccc2)NC(=O)[C@H](CC(N)=O)NC1=O` [Peptide 8] (Ac-R[Orn]N[dF]RW[GABA]; lactam 2-C), the concentration giving a half-maximal response (EC50) in test [1] is over 10000 nM; in test [2], 1 nM; in test [3], 20 nM; in test [4], 230 nM. Also, the Emax in test [1] stood at 41%; in test [2] it was 101%; in test [3], 75%; in test [4] it was 74%.

As to `CC(=O)N[C@@H](CCCNC(=N)N)C(=O)N[C@H]1CCNC(=O)CCCCNC(=O)[C@H](Cc2c[nH]c3ccccc23)NC(=O)[C@H](CCCNC(=N)N)NC(=O)[C@@H](Cc2ccccc2)NC(=O)[C@H](Cc2c[nH]cn2)NC1=O` [Peptide 9], the EC50 in test [1] is over 10000 nM; in test [2], 0.22 nM; in test [3], 0.5 nM; in test [4], 0.9 nM. Further, the Emax was 32% in test [1], 105% in test [2], 104% in test [3] and 79% in test [4].

On to `CC(=O)N[C@@H](CCCNC(=N)N)C(=O)N[C@H]1CNC(=O)CCCCCNC(=O)[C@H](Cc2c[nH]c3ccccc23)NC(=O)[C@H](CCCNC(=N)N)NC(=O)[C@@H](Cc2ccccc2)NC(=O)[C@H](Cc2c[nH]cn2)NC1=O` [Peptide 11], for which the 50% effective concentration (EC50) in test [1] is over 10000 nM; in test [2] it was 0.19 nM; in test [3], 7 nM; in test [4], 2 nM. For the same molecule, the Emax in test [1] was 13%; in test [2] it was 99%; in test [3], 98%; in test [4] it was 93%.

Consider `CC(=O)N[C@@H](CCCNC(=N)N)C(=O)N[C@H]1CNC(=O)CCCCCNC(=O)[C@H](Cc2c[nH]c3ccccc23)NC(=O)[C@H](CCCNC(=N)N)NC(=O)[C@@H](Cc2ccccc2)NC(=O)[C@H](CC(N)=O)NC1=O` [Peptide 12] (Ac-R[Dap]N[dF]RW[Ahx]; lactam 2-C), for which the EC50 in test [1] is over 10000 nM; in test [2], 2 nM; in test [3] it was 55 nM; in test [4], 206 nM. The maximal response (Emax) in test [1] came out at 20%; in test [2], 116%; in test [3] it was 48%; in test [4], 95%.

Regarding `CC(=O)N[C@@H](CCCNC(=N)N)C(=O)N[C@H]1CCCNC(=O)CCCNC(=O)[C@H](Cc2c[nH]c3ccccc23)NC(=O)[C@H](CCCNC(=N)N)NC(=O)[C@@H](Cc2ccccc2)NC(=O)[C@H](Cc2c[nH]cn2)NC1=O` [Peptide 13], the 50% effective concentration (EC50) in test [1] was over 10000 nM; in test [2] it was 0.27 nM; in test [3], 0.4 nM; in test [4], 1 nM. Besides, the Emax in test [1] stood at 25%; in test [2] it was 87%; in test [3], 101%; in test [4] it was 80%.

In the case of `CC(=O)N[C@@H](CCCNC(=N)N)C(=O)N[C@H]1CCCCNC(=O)CCNC(=O)[C@H](Cc2c[nH]c3ccccc23)NC(=O)[C@H](CCCNC(=N)N)NC(=O)[C@@H](Cc2ccccc2)NC(=O)[C@H](Cc2c[nH]cn2)NC1=O` [Peptide 14] (Ac-RKH[dF]RW[βAla]; lactam 2-C), the half-maximal effective concentration (EC50) is over 10000 nM in test [1], 0.15 nM in test [2], 0.2 nM in test [3] and 0.79 nM in test [4]. Besides, the maximum response (Emax) in test [1] amounted to 22%; in test [2] it was 83%; in test [3], 106%; in test [4] it was 111%.

As to `CC(=O)N[C@@H](CCCNC(=N)N)C(=O)N[C@H]1CCCCNC(=O)CCNC(=O)[C@H](Cc2c[nH]c3ccccc23)NC(=O)[C@H](CCCNC(=N)N)NC(=O)[C@@H](Cc2ccccc2)NC(=O)[C@H](CC(N)=O)NC1=O` [Peptide 15] (Ac-RKN[dF]RW[βAla]; lactam 2-C), the EC50 in test [1] is 140 nM; in test [2], 0.3 nM; in test [3], 2 nM; in test [4] it was 140 nM. In addition, the Emax in test [1] came to 44%; in test [2], 94%; in test [3] it was 90%; in test [4], 102%.
